Experiments:
rats subjected to MCAO [1] = assay: Post Stroke Recovery MCAO Model: Tray Reaching; format: in vivo, rat; conditions: 7 and 14 days after stroke, compared with vehicle treatment
Excerpt: Adult male Wistar rats are pre-trained on a battery of behavioral tests including: tray reach, gridwalk, forelimb asymmetry (cylinder bracing), forelimb inhibition (swim test) (see below for detailed description of tests). Following pre-stroke behavioral assessment the rats receive surgery during which a stroke is induced. The rats are pseudo-randomly divided into 5 equal groups (n=12) ensuring an equal number of right and left strokes within each treatment group. The first group receives sham surgery with vehicle as treatment. Administration of the test compound and vehicle (dose, route, timing) is determined by the sponsor. The core body temperature is maintained at 37° C. (+/−1°).
Following surgery all animals are behaviorally assessed 1, 7, and 14 d post-stroke. At the conclusion of behavioral assessment all rats undergo an MRI to determine infarct volume. […]
Each animal is weighed (average weights were 340 g) and then anesthetized with isoflurane (4% isoflurane carried on 2 l/min medical grade oxygen to induce surgical plane and then 2% with 2 l/min oxygen to maintain a surgical plane). […] Rectal temperature is monitored and maintained at 37 C+/−1° C. for the duration of the surgery and until the rat is awake and mobile (approximately 3 hr). […]
Forepaw use is measured with a procedure that is adapted from the method devised by Whishaw, O'Connor, and Dunnett (1986). […]

rats subjected to MCAO [2] = assay: Post Stroke Recovery MCAO Model: Forelimb Inhibition (Swimming Test); format: in vivo, rat; conditions: 7 and 14 days after stroke
Excerpt: Adult male Wistar rats are pre-trained on a battery of behavioral tests including: tray reach, […], forelimb asymmetry (cylinder bracing), forelimb inhibition (swim test) (see below for detailed description of tests). Following pre-stroke behavioral assessment the rats receive surgery during which a stroke is induced. The rats are pseudo-randomly divided into 5 equal groups (n=12) ensuring an equal number of right and left strokes within each treatment group. The first group receives sham surgery with vehicle as treatment. Administration of the test compound and vehicle (dose, route, timing) is determined by the sponsor. The core body temperature is maintained at 37° C. (+/-1°). Following surgery all animals are behaviorally assessed 1, 7, and 14 d post-stroke. At the conclusion of behavioral assessment all rats undergo an MRI to determine infarct volume. Group behavioral performance and stroke volume are compared between groups using one way analysis of variance to determine therapeutic benefit of the compound in rate and extent of recovery of function following MCAO stroke. […] Rectal temperature is monitored and maintained at 37 C+/-1° C. for the duration of the surgery and until the rat is awake and mobile (approximately 3 hr). […] Inhibition of the forelimbs is assessed by filming animals during swimming. […] Only the mid 80% of the length is scored. […]

## Cc1nc(-c2ccccc2Cl)nc(Nc2n[nH]c3ncc(F)cc23)c1C [Compound I-1, N-(2-(2-chlorophenyl)-5,6-dimethylpyrimidin-4-yl)-5-fluoro-1H-pyrazolo[3,4-b]pyridin-3-amine]
Rats subjected to MCAO [1]
  deficit in reaching performance (tray reaching): significantly ameliorated this deficit
Rats subjected to MCAO [2]
  deficit in forelimb inhibition (swimming test): significantly ameliorated this deficit

From patent publication US8518953B2, “Aminopyrimidines useful as inhibitors of protein kinases” (Vertex Pharmaceuticals Incorporated, priority 2007, dated 2013)
